The source of these data is ChEMBL document CHEMBL3832555, “DailyMed|setid=f0492050-a966-41be-80b5-a58da7ba2bcf | PERINDOPRIL ERBUMINE-perindopril erbumine tablet|Lannett Company, Inc”.

Each structure is given as a SMILES string.

The series relates to Homo sapiens. The experiment in a line: Evaluation of pharmacokinetic parameters for PERINDOPRIL and its active metabolite, PERINDOPRILAT,following single oral administration of PERINDOPRIL ERBUMINE tablets. As to conditions: in vivo, dosed compound id 11, dosed compound name PERINDOPRIL ERBUMINE, tissue Plasma. Format: ADME, organism-based.

As usually defined, the Tmax is the time from dosing to the highest level.

Take `CC(C)(C)N.CCC[C@H](N[C@@H](C)C(=O)N1[C@H](C(=O)O)C[C@@H]2CCCC[C@@H]21)C(=O)OCC` [PERINDOPRIL ERBUMINE]: the F was 75%, the Protein binding was 60%, the time of peak concentration (Tmax) stood at 1 h and the t1/2-elimination lay within 0.8 to 1 h.
For `CCC[C@H](N[C@@H](C)C(=O)N1[C@H](C(=O)O)C[C@@H]2CCCC[C@@H]21)C(=O)O` [PERINDOPRILAT], the F stood at 25%, the Protein binding fell in the range of 10 to 20%, the Tmax was in the range of 3 to 7 h and the t1/2 fell in the range of 3 to 10 h. Besides, the t1/2-elimination lay within 30 to 120 h.
